Experiments:
[1] = tested on: L1210; test: Inhibition of cellular growth against mouse (L1210) deficient in thymidine kinase.
[2] = tested on: GC3/MTK-; test: Inhibition of cellular growth against human adenocarcinoma (GC3/M TK-) deficient in thymidine kinase.
[3] = tested on: CCRF-CEM; test: Inhibition of cellular growth against human (CCRF-CEM) leukemias (ATCC) deficient in thymidine kinase.
[4] = molecular target: Thymidylate synthase (Escherichia coli, UniProt C3SWJ7)
Description: Inhibition of Thymidylate synthase of Escherichia coli (Ki)

[5] = tested on: GC3/MTK-; test: Inhibition of cellular growth against human adenocarcinoma (GC3/M TK-) deficient in thymidine kinase
[6] = tested on: CCRF-CEM; test: Inhibition of cellular growth against human (CCRF-CEM) leukemias (ATCC) deficient in thymidine kinase
[7] = tested on: L1210; test: Inhibition of cellular growth against mouse (L1210) deficient in thymidine kinase
[8] = molecular target: Thymidylate synthase (Homo sapiens, UniProt P04818)
Description: Inhibition of human Thymidylate synthase (Ki)

[9] = molecular target: Thymidylate synthase (Escherichia coli) (UniProt C3SWJ7)
Sequence of Thymidylate synthase (Escherichia coli) (C3SWJ7 1-264): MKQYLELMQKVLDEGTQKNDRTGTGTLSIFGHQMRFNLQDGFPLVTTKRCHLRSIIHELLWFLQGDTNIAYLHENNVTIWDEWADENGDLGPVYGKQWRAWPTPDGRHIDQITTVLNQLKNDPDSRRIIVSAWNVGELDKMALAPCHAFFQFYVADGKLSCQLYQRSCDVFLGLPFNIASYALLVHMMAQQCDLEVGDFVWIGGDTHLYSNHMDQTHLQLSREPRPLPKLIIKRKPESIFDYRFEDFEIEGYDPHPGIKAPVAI
Description: Inhibition of Thymidylate synthase of Escherichia coli (Kii)

Sequence of Thymidylate synthase (Escherichia coli, UniProt C3SWJ7) (C3SWJ7 whole entry): as the sequence (C3SWJ7 1-264) above
Sequence of Thymidylate synthase (Homo sapiens, UniProt P04818) (P04818 whole entry): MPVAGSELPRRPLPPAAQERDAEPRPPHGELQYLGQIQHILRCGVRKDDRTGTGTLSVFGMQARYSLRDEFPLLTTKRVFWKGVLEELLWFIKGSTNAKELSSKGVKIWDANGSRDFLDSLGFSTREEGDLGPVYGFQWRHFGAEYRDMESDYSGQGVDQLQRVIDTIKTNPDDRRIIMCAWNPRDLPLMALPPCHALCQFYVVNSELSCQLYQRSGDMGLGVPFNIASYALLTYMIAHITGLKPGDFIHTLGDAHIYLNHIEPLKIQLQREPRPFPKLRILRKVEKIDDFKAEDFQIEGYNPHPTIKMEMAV

| Structure (SMILES) | IC50 [1] | IC50 [2] | IC50 [3] | other results |
| --- | --- | --- | --- | --- |
| CCN(Cc1ccc(S(=O)(=O)N2CCNCC2)cc1)c1ccc2c3c(cccc13)C(=O)N2 | 6000 nM |  |  |  |
| O=S(=O)(c1ccc(CN2CCCc3cc4[nH]cnc4cc32)cc1)N1CCNCC1 | 20000 nM | 43000 nM | 11000 nM | Ki [4]: 4900 nM |
| Nc1nc2cc3c(cc2[nH]1)N(Cc1ccc(S(=O)(=O)N2CCNCC2)cc1)CCC3 | 2050 nM |  | 2200 nM | IC50 [5]: > 50000 nM |
| CN(Cc1ccc(S(=O)(=O)c2ccccc2)cc1)c1ccc2c3c(cccc13)C(=O)N2 |  |  |  | IC50 [5]: > 5000 nM |
| CN(Cc1ccc(S(=O)(=O)N2CCNCC2)cc1)c1ccc2c3c(cccc13)C(=O)N2 | 2300 nM | 25000 nM | 8300 nM |  |
| C#CCN(Cc1ccc2nc(C)nc(O)c2c1)c1ccc(S(=O)(=O)c2ccccc2)cc1 | 1000 nM | 1100 nM | 1600 nM |  |
| CN(Cc1ccc(S(=O)(=O)c2ccccc2)cc1)c1ccc2c3c(cccc13)C(N)=N2 | 380 nM | 4600 nM | 1600 nM |  |
| C#CCN(Cc1ccc2[nH]c(N)nc(=O)c2c1)c1ccc(C(=O)NC(CCC(=O)O)C(=O)O)cc1 (centres undefined) | 3500 nM | 1400 nM | 750 nM |  |
| Nc1nc2cc3c(cc2[nH]1)N(Cc1ccc(S(=O)(=O)c2ccccc2)cc1)CCC3 | 2000 nM |  | 3900 nM | IC50 [5]: > 5000 nM; Ki [4]: 43 nM |
| C#CCN(Cc1ccc2nc(C)nc(O)c2c1)c1cccc(C(F)(F)F)c1 |  |  |  | IC50 [5]: > 4300 nM; IC50 [6]: > 4300 nM; IC50 [7]: > 4300 nM; Ki [4]: 450 nM |
| C#CCN(Cc1ccc2nc(C)nc(O)c2c1)c1ccc(C(=O)NC(CCC(=O)O)C(=O)O)cc1 (centres undefined) | 59 nM | 49 nM | 43 nM | Ki [8]: 8.5 nM; Kii [9]: 0.013 µM; Ki [4]: 4.8 nM |
| C#CCN(Cc1ccc2nc(C)nc(O)c2c1)c1ccc(S(=O)(=O)c2ccccc2)c(C(F)(F)F)c1 | 2000 nM | 7500 nM | 3500 nM |  |
| C#CCN(Cc1ccc2nc(C)nc(O)c2c1)c1ccc(S(=O)(=O)n2ccc3ccccc32)cc1 | 300 nM | 1500 nM | 1300 nM |  |
| C#CCN(Cc1ccc2nc(C)nc(O)c2c1)c1ccccc1 |  | > 10700 nM |  | IC50 [6]: > 10700 nM; IC50 [7]: > 10700 nM |
